{"source": "patent US10092515B2", "about": "“Liposomal formulations of polymyxin B and uses thereof” (University of Houston System, priority 2012, dated 2018)", "key": {"[1]": {"experiment": "Polymyxin B pharmacokinetics in megalin-shedding rats (serum and renal tissue)", "assay_type": "in vivo, Sprague-Dawley rats", "conditions": "for AUC0-∞, renal tissue/AUC0-∞, serum ratio / AUC0-∞, renal tissue / AUC0-∞, serum / renal tissue polymyxin B concentration (3 h postdosing): rats, 3 mg/kg IV", "description": "(§1) A validated ultraperformance liquid chromatography-tandem mass spectrometry (UPLC/MS-MS) method was modified to determine the concentrations of polymyxin B in rat serum and renal tissues, as previously described (32). The lower limit of quantification (LLOQ) was 50 ng/ml for all the major components of polymyxin B in serum as well as the renal tissue homogenate.\nTo study the impact of sodium maleate pretreatment on systemic/renal exposure of polymyxin B, the rats were divided into two groups (n=13 each). Animals in both control and experimental groups were administered a single intravenous dose of 3 mg/kg of polymyxin B sulfate (USP). The intravenous route of polymyxin B administration was preferred to avoid any interference with drug absorption at the injection site. In addition, the animals in the experimental group were given 400 mg/kg of sodium maleate intraperitoneally 3 to 6 h prior to polymyxin B administration. Serum samples were obtained at 1.5, 3, 4.5, 6, and 7.5 h after polymyxin B dosing. In addition, the rats were sacrificed to harvest the kidneys at 3, 6, and 24 h (n=3 at each time point) postdosing. Polymyxin B concentrations in serum and renal tissue samples were assayed by the validated UPLC-MS/MS method detailed above.\nThe mean concentrations of polymyxin B in serum, as well as in renal tissue samples, at each time point were used. A modified two-compartment model (data not shown) was used to cofit the serum/renal tissue concentration-time profiles using ADAPT 5 (University of Southern California, Los Angeles, Calif.). Using the best-fit parameters, the AUC0-∞ was estimated by integrating instantaneous concentrations with respect to time. The AUC0-∞, renal tissue/AUC0-∞, serum ratio was used as an index to quantitatively assess preferential accumulation of polymyxin B in renal tissue.\nTo further examine whether the effect of sodium maleate on the renal accumulation of polymyxin B is transient, three additional rats were given a single dose of 400 mg/kg of sodium maleate intraperitoneally. Two weeks later, the animals were given a single dose of 3 mg/kg of polymyxin B intravenously. The rats were sacrificed at 3 h postdosing; kidneys were harvested and homogenized. Polymyxin B concentrations in renal tissue samples were assayed by the validated UPLC-MS/MS method."}, "[2]": {"experiment": "Onset of nephrotoxicity (serum creatinine >=2-fold baseline) at escalating daily doses", "assay_type": "in vivo, Sprague-Dawley rats", "conditions": "rats", "text": "Female Sprague-Dawley rats (225 to 250 g) (Harlan, Indianapolis, Ind.) were used. The rats received food and water ad libitum. All animals were cared for in accordance with the highest humane and ethical standards, as approved by the Institutional Animal Care and Use Committee (IACUC) of the University of Houston. The jugular veins of selected animals were cannulated to facilitate intravenous drug administration.\nPrior to each experiment, polymyxin B for injection (USP) was reconstituted with sterile water for injection (USP) and diluted to achieve the desired concentration. The reconstituted drug solution was stored at −80° C. in aliquots and thawed immediately before dosing.\nTo mimic a clinical course of polymyxin B treatment, three groups of rats (n=13 each) were administered escalating dose levels of polymyxin B (5 mg/kg, 10 mg/kg, and 20 mg/kg, respectively) once daily subcutaneously for up to 7 days. Blood samples (approximately 200 μl) were drawn via the tail vein at baseline and on a daily basis (before dosing when applicable). Blood was allowed to clot on ice, and serum was separated by centrifugation at 4,000×g for 10 min. Serum samples (100 μl) were further assayed for creatinine levels by use of a clinical chemistry analyzer (Piccolo Xpress; Abaxis, Inc., Union City, Calif.). A significant elevation in serum creatinine (≥2-fold […] the baseline level) was set as the endpoint for nephrotoxicity. Kaplan-Meier survival analysis and a log rank (Mantel-Cox) test were used to compare the times of onset of nephrotoxicity among various groups. Right censoring was used if the nephrotoxicity endpoint was not observed by day 7."}, "[3]": {"tested_on": "multiple drug resistant (MDR) Pseudomonas aeruginosa strain (PA 9019)", "conditions": "PA 9019, previously determined; cited from earlier work"}, "[4]": {"experiment": "Renal tissue concentration of polymyxin B at escalating dose levels", "assay_type": "in vivo, Sprague-Dawley rats", "conditions": "rats, 24 h after first dose, summed components", "description": "as §1\nTo determine the renal tissue concentration of polymyxin B, three rats from each dosing group were randomly selected and sacrificed at 24 h after the first dose; kidneys were harvested and homogenized. A fixed time point was selected to avoid any potential confounding due to different cumulative doses received when nephrotoxocity was observed. The concentrations of the major components of polymyxin B (polymyxin B1, polymyxin B2, polymyxin B3, and isoleucine polymyxin B1) were determined in […] as described above.\nFor the purpose of drug quantification in the renal tissue homogenates, the estimated concentrations were divided by the total weight of the kidney and the final concentrations were expressed per gram of renal tissue (in micrograms/gram). The summed concentrations of individual components were used to estimate the overall renal drug exposure (33). One-way analysis of variance (ANOVA) and then post hoc Tukey's test were used to compare the mean renal tissue concentrations among the dosing groups, and P values of <0.05 were considered significant."}, "[5]": {"tested_on": "P. aeruginosa ATCC 27853 (PA 27853)", "conditions": "PA 27853, previously determined; cited from earlier work"}, "[6]": {"conditions": "experimental group: 400 mg/kg sodium maleate i.p. 3 to 6 h before"}}, "data": [{"substance": "Polymyxin B", "values": [{"measurement": "attenuation of polymyxin B exposure in renal tissue after pretreatment with maleate", "setting": "[1]; megalin-shedding rats vs control", "result": "approximately 40%"}, {"measurement": "AUC0-∞, renal tissue/AUC0-∞, serum ratio", "setting": "[1]; control group", "result": 19.1}, {"measurement": "AUC0-∞, renal tissue", "setting": "[1]; control group (no maleate)", "result": 211900, "unit": "ng·h/mL"}, {"measurement": "AUC0-∞, serum", "setting": "[1]; control group (no maleate)", "result": 10400, "unit": "ng·h/mL"}, {"measurement": "renal tissue polymyxin B concentration (3 h postdosing)", "setting": "[1]; control rats", "result": 11.45, "unit": "µg/g"}, {"measurement": "AUC0-∞, renal tissue/AUC0-∞, serum ratio", "setting": "[1]; experimental group (maleate pretreatment)", "result": 11.6}, {"measurement": "AUC0-∞, renal tissue", "setting": "[1]; [6]", "result": 121000, "unit": "ng·h/mL"}, {"measurement": "AUC0-∞, serum", "setting": "[1]; [6]", "result": 11100, "unit": "ng·h/mL"}, {"measurement": "renal tissue polymyxin B concentration (3 h postdosing)", "setting": "[1]; sodium maleate 400 mg/kg given 2 weeks earlier", "result": 11.08, "unit": "µg/g"}, {"measurement": "animals that reached the predefined nephrotoxicity endpoint by day 7", "setting": "[2]; 5 mg/kg once daily subcutaneously up to 7 days", "result": "none"}, {"measurement": "animals that reached the nephrotoxicity endpoint within the first 48 h of treatment", "setting": "[2]; 10 mg/kg daily subcutaneously", "result": "1 out of 10"}, {"measurement": "animals that reached the nephrotoxicity endpoint within the first 48 h of treatment", "setting": "[2]; 20 mg/kg daily subcutaneously", "result": "8 out of 10"}, {"measurement": "animals that reached the predefined nephrotoxicity endpoint (serum creatinine >=2-fold baseline)", "setting": "[2]; 20 mg/kg once daily subcutaneously up to 7 days", "result": "10 out of 10"}, {"measurement": "minimum inhibitory concentration (MIC)", "setting": "[3]", "result": 4, "unit": "µg/mL"}, {"measurement": "concentration of polymyxin B in renal tissue", "setting": "[4]; 5-mg/kg dosing group", "result": "3.6 ± 0.4", "unit": "µg/g"}, {"measurement": "concentration of polymyxin B in renal tissue", "setting": "[4]; 10-mg/kg dosing group", "result": "9.9 ± 1.5", "unit": "µg/g"}, {"measurement": "concentration of polymyxin B in renal tissue", "setting": "[4]; 20-mg/kg dosing group", "result": "21.7 ± 4.8", "unit": "µg/g"}, {"measurement": "minimum inhibitory concentration (MIC)", "setting": "[5]", "result": 2, "unit": "µg/mL"}]}]}
